The assay relates to pFlare splicing reporter (MAPT exon 10) in HEK293 cells. Kind of assay: Dual fluorescence (RFP/GFP) alternative splicing reporter (pFlare) assay. Format: cell-based. Here is the method:
For evaluation of in vitro splicing activity using a two-color fluorescent splicing reporter system, HEK293T cells (mycoplasma-free authenticated cell lines obtained from ATCC) were grown in complete media (DMEM+10% FBS) and transfected with a series of fluorescent protein-expressing plasmids. Vector controls include pFlare5A, which expresses solely GFP, and pFlare5G, which expresses maximal RFP. The pFlare reporter contains microtubule-associated protein tau (MAPT) exon 10 as an indicator of alternative splicing. Under physiological conditions, the pFlare conditional reporter vector allows in-frame expression of GFP but not RFP. In the presence of splicing inhibitors, exon skipping favors production of RFP over GFP. […] Fluorescence was evaluated on a Leica fluorescent microscope (Sanford Consortium Stem Cell Core facility) and then analyzed by flow cytometry on a Miltenyi MACSQUANT® to assess transfection efficiency (ranging from over 70% at 24 hrs after transfection to approximately 20% at 48 hrs after transfection) and mean fluorescence intensity (MFI) of RFP and GFP in positive cells. In HEK293 cells transiently transfected with control GFP or RFP vectors, or the pFlare splicing reporter vector, the dynamic range of the assay as measured by MFI of GFP and RFP 48 hours after transfection ranged from 0.41-1.69 for RFP/GFP ratios (FIG. 6A). […]

Entries after “also recorded” stand apart in the source; their conditions may differ.

For the compound `CC[C@H](OC)[C@@H](C)[C@H]1O[C@@H]1[C@@H](O)[C@H](C)/C=C/C=C(\C)[C@H]1OC(=O)C[C@H](O)CC[C@@](C)(O)[C@@H](OC(C)=O)/C=C/[C@@H]1C` (stereo in doubt) [Formula 17S-FD-895, 17S-FD-895], the RFP/GFP ratios result (HEK293 cells, 0.01-10 μM, 24 hrs, flow cytometry MFI) is “dose-dependent increase”. The “RFP fluorescence by confocal microscopy” value (reporter-transfected HEK293 cells, 1-10 μM, live-cell / time-lapse) is on record as “increase in RFP fluorescence; also recorded: increased RFP/GFP expression; also recorded: increased RFP fluorescence”.
